According to patent US20220281859A1, “HETEROCYCLIC COMPOUNDS AS KINASE INHIBITORS” (Nuvation Bio Inc., priority 2019, published 2022):

Tests used:
[1] = molecular target: T1, CDK6 (Homo sapiens, UniProt Q00534); assay: In vitro kinase inhibition IC50, luminescence (ADP Glo) with retinoblastoma as substrate; format: biochemical; details: ATP 25 μM, 2H at room temperature
T1 construct: purchased Invitrogen PR8422B
Protocol: (§1) IC50 values of compounds against CDK4 and CDK6 were determined by luminescence using retinoblastoma as substrate. Kinase assays were performed in kinase buffer (#PV6135, Invitrogen, Life Technologies Grand Island, N.Y.) where total reaction volume was 30 μL/well in 96-well half area white plates (#3693, Costar). One microliter of 25×test compounds at specific concentrations (e.g., final concentration range: 0.1 nM-200 nM) was mixed with 10 μL of 2.5×kinase (5 nM, CDK4 #PR8064A and CDK6 #PR8422B, Invitrogen) solution and 14 μL of 4× mixed solution with retinoblastoma (1 μM, #12-439, EMD Millipore, Hayward, Calif.) and ATP (25 μM, #V7038, Promega, Madison, Wis.). The plates were covered and incubated for 2H at room temperature. At the end of incubation, 25 μL of stop solution—ADP Glo reagent (#V7002, Promega) was added. After incubation for 45 min at room temperature, 50 μL of detection reagent (##V7002, Promega) was added. Readings were taken at 15 min and 45 min incubation after detection reagent was added in a Synergy Neo Plate reader (BioTek, Winooski, Vt.) at single excitation of 340 nm and Dual emission at 495 nm and 520 nm respectively. The following equations were used in the CDK4 and CDK6 assay data analysis. Percent inhibition (100-% activity) was fitted to the “four-parameter logistic model” in XLfit for determination of IC50 values.
(§2) Percent conversion of enzyme=100−{(RLUNo Drug−No enzyme*100)/RLUNo drug+Enzyme} Equation 1
(§3) Percent conversion at each data point=100−{(RLUAverage(Drug+enzyme)*100)/RLUNo drug+Enzyme} Equation 2
(§4) Percent Inhibition=100*(% Conversioneach data point/% ConversionEnzyme) Equation 3

[2] = molecular target: T2, CDK4 (Homo sapiens, UniProt P11802); assay: as above; format: biochemical; details: ATP 25 μM, 2H at room temperature
T2 construct: purchased Invitrogen PR8064A
T2 sequence (P11802 whole entry): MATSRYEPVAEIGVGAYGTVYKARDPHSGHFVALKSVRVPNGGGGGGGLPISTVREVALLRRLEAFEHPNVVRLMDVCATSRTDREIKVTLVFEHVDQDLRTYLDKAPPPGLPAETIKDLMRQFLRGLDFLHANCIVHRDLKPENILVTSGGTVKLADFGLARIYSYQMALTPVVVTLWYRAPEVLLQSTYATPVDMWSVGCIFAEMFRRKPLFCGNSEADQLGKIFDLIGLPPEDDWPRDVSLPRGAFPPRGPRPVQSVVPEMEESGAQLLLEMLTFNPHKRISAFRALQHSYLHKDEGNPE
T2 sequence (P24385 whole entry partner): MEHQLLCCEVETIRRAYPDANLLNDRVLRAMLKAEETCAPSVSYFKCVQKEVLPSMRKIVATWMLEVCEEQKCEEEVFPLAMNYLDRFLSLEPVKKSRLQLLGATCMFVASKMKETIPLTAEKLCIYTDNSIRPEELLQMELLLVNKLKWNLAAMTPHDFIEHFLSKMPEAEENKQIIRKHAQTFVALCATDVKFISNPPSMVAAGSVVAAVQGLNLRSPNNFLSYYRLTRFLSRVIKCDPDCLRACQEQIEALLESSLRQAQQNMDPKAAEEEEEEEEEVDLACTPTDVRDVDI
Protocol: as §1, §2, §3, §4

[3] = test system: MCF-7; assay: Cancer cell proliferation assay as a single agent (cell viability); format: cell-based; details: Homo sapiens, MCF7; MCF-7 breast adenocarcinoma, Rb Positive, 144H treatment
Protocol: (§5) The effects of test compounds were studied in two breast cancer cell lines of different subtype. The cancer cells (Table 3) were harvested during the logarithmic growth period and counted. Cell concentrations were adjusted to the appropriate number with respective medium and 90 μL cell suspensions were added to 96-well plates. After cells were seeded, the plates were shaken gently to distribute cells evenly and incubated at 37° C., 5% CO2 on day 1.
(§6) Cells were treated with test compounds at 7 to 9 concentrations within a desired concentration range (e.g. 1.1 nM-10 μM) on day 2 by series diluting the test compound stock solution (10 mM in DMSO) with culture medium. Treatment duration was 144H (with a medium change at 72H) for both MCF-7 and DU4475 cells. Cell viability was assessed by Cell Titer-Glo® as recommended by Promega (Cat. No.: G7572), or by resazurin assay (Sigma Aldrich, Cat. No.: R7017) post treatment.
(§7) Cell viability data were plotted using GraphPad Prism (GraphPad Software, Inc., San Diego, Calif.). In addition, a nonlinear regression model with a sigmoidal dose response and variable slope within GraphPad Prism was used to calculate the IC50 value of individual test compounds.

[4] = test system: DU4475; assay: as above; format: cell-based; details: Homo sapiens, DU-4475; DU4475 breast carcinoma, Rb Negative, 144H treatment
Protocol: as §5, §6, §7

[5] = molecular target: T3, CDK1 (cyclin B) (Homo sapiens, UniProt P06493); assay: Z'-LYTE kinase inhibition IC50; format: biochemical; details: ATP 34 μM, 60 minutes at room temperature
T3 construct: purchased Invitrogen Life Technologies (assay run at the vendor)
T3 sequence (P06493 whole entry): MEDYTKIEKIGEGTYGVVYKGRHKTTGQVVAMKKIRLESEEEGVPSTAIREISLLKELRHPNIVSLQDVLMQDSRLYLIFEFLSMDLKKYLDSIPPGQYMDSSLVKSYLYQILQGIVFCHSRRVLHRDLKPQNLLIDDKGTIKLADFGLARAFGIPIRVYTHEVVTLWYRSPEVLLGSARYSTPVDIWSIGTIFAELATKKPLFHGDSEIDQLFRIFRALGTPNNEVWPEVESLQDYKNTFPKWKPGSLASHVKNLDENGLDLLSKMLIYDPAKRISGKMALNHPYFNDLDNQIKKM
T3 sequence (P14635 whole entry partner): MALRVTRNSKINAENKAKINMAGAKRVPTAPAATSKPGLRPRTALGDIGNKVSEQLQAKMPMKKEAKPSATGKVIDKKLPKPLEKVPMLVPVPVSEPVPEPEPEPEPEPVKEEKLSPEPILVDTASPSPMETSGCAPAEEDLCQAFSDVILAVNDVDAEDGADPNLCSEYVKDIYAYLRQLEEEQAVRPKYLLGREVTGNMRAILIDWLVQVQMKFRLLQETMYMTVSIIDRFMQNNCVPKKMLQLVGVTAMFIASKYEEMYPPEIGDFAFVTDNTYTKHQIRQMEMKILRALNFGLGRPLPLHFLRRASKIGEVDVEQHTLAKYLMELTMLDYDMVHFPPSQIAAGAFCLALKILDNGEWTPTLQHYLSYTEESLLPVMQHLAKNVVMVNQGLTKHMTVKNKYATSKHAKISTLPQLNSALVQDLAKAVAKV
Protocol: IC50 values of compounds against CDK1 (cyclin B) were determined by Z′-LYTE™. These screening assays were performed at Invitrogen Life Technologies (Grand Island, N.Y.) on a low volume NBS, black 384-well plate (#4514, Corning). 0.1 μL of 100× test compound in 100% DMSO (at specific solutions) was mixed with 2.4 μL of Kinase Buffer (50 mM HEPES pH 7.5, 0.01% BRIJ-35, 10 mM MgCl2, 1 mM EGTA), 5 μL of 2× Kinase (3.5-46.4 ng CDK1/cyclin B)/Peptide (2 μM Ser/Thr 18), and 2.5 μL of 4×ATP solution (34 μM). The plates were shaken for 30 seconds, and incubated for 60 minutes at room temperature. Development Reagent Solution (5 μL of 1:1024 dilution) was added to the plates followed with another 30-second plate shake, and the plates were further incubated at room temperature for one hour. The plates were read on fluorescence plate reader with Dual emission at 445 nm and 520 nm.
(§8) The following equations were used for Z′-LYTE™ Screening Assay Data Analysis. Percent inhibition (100-% activity) was fitted to the “four-parameter logistic model” in XLfit for determination of IC50 values.

[6] = molecular target: T4, CDK2 (cyclin A) (Homo sapiens, UniProt P24941); assay: Z'-LYTE kinase inhibition IC50; format: biochemical; details: ATP 31 μM, 60 minutes at room temperature
T4 construct: purchased Invitrogen Life Technologies (assay run at the vendor)
Protocol: IC50 values of compounds against CDK2 (cyclin A) were determined by Z′-LYTE™. These screening assays were performed at Invitrogen Life Technologies (Grand Island, N.Y.) on a low volume NBS, black 384-well plate (#4514, Corning). 0.1 μL of 100× test compound in 100% DMSO (at specific solutions) was mixed with 2.4 μL of Kinase Buffer (50 mM HEPES pH 7.5, 0.01% BRIJ-35, 10 mM MgCl2, 1 mM EGTA), 5 μL of 2× Kinase (1.22-10.3 ng CDK2/cyclin A)/Peptide (2 μM Ser/Thr 12), and 2.5 μL of 4×ATP solution (31 μM). The plates were shaken for 30 seconds, and incubated for 60 minutes at room temperature. Development Reagent Solution (5 μL of 1:1024 dilution) was added to the plates followed with another 30-second plate shake and the plates were further incubated at room temperature for one hour. The plates were read on fluorescence plate reader with Dual emission at 445 nm and 520 nm.
as §8

T1 sequence (Q00534 whole entry): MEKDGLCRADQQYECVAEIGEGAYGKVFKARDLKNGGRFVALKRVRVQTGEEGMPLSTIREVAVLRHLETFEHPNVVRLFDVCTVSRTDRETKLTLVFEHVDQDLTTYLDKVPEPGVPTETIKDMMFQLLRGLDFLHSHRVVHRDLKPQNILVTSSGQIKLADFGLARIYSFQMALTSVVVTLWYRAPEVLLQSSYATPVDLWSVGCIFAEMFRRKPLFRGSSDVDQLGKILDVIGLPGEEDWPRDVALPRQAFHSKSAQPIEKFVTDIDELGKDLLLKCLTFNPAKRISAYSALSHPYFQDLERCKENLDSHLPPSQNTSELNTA
T1 sequence (P24385 whole entry partner): as the sequence (P24385 whole entry partner) above

Row | IC50 [1] | IC50 [2] | IC50 [3] | IC50 [4] | IC50 [5] | IC50 [6] | Structure (SMILES)
1 | 24 nM | 15 nM | 3440 nM | 1490 nM | 7 nM | 15 nM | CC(C)N1CCOc2c(F)cc(-c3nc(Nc4ccc5[nH]nc(C6CCNCC6)c5c4)ncc3F)cc21 [Compound 59, N-(5-fluoro-4-(8-fluoro-4-isopropyl-3,4-dihydro-2H-benzo[b][1,4]oxazin-6-yl)pyrimidin-2-yl)-3-(piperidin-4-yl)-1H-indazol-5-amine]
2 | > 200 nM | > 190 nM | 80 nM | 130 nM | – | – | CC(C)N1CCOc2c(F)cc(-c3nc(Nc4nc5cc(C6=CCNCC6)ccc5s4)ncc3F)cc21 [Compound 120, N-(5-fluoro-4-(8-fluoro-4-isopropyl-3,4-dihydro-2H-benzo[b][1,4]oxazin-6-yl)pyrimidin-2-yl)-5-(1,2,3,6-tetrahydropyridin-4-yl)benzo[d]thiazol-2-amine]
